Measurements reported in patent US20260098061A1, “EPHA2-BINDING PENDING PEPTIDE AND COMPOSITION COMPRISING SAME” (PeptiDream Inc., priority 2022, published 2026).
pKd: −log10 of the molar value. Numbered stars: 1 amine (or outer) side, 2 acyl side, 3 side chain; on linkers, the order of the positions; unused ones are H or OH. Bridge positions count the residues as written; N and C are the ends. Square brackets hold non-standard residues; d marks the D form. Side chains are listed from the residue outwards. Peptide text beside a SMILES is read from it. * marks the point of attachment. X6 = Cn1cc(C[C@H](N[*:1])C(=O)[*:2])c2cccnc21; Piperazinyl(4-CH2COOH) = O=C(O)CN1CCN(*)CC1; Trp(1-Me) = Cn1cc(C[C@H](N)C(=O)O)c2ccccc21; NMe3Pal = CN[C@@H](Cc1cccnc1)C(=O)O; NMeF = CN[C@@H](Cc1ccccc1)C(=O)O; Gly(cBu) = N[C@H](C(=O)O)C1CCC1; NMeE = CN[C@@H](CCC(=O)O)C(=O)O; Aad = N[C@@H](CCCC(=O)O)C(=O)O; NMeN = CN[C@@H](CC(N)=O)C(=O)O; CO = O=C([*:1])[*:2]; βAla = NCCC(=O)O

These molecules were tested against T1, Recombinant Human EphA2 Fc Protein (Homo sapiens, UniProt P29317) (assay: SPR interaction analysis (Biacore T200), kinetics of peptides against EphA2). Settings: Recombinant Human EphA2 Fc Protein captured by Human Antibody Capture kit; single-cycle kinetics; 25° C.; HBS-P+ buffer with 1% DMSO.
T1 construct: purchased Elabscience
Assay type: binding
Experimental: Example 14 Interaction Analysis by SPR was Performed Using Biacore (Cytiva)
SPR assay was performed using Biacore T200 (Cytiva).
The HBS-P+ buffer (10 mM HEPES (pH7.4), 150 mM NaCl, 0.05% (v/V) Surfactant P20) containing 1% DMSO was used as running buffer. Recombinant Human EphA2 Fc Protein (Fc tag, Elabscience) was captured by Human Antibody Capture kit (Cytiva). Peptide samples in DMSO were diluted with running buffer, and prepared five serial dilutions. Using these serial dilutions, kinetics of peptides against EphA2 was measured at a flow rate of 30 mL/min at 25° C. The method adopted for sample measurement was a single-cycle kinetics method. The analysis was conducted using the evaluation software 3.0 provided with Biacore T200. Kinetics fitting was done on the difference data obtained by subtracting the baseline data from sample measurement data. KD values were calculated based on the association rate constant (ka) and dissociation rate constant (kd).

SMILES | pKd
CC(=O)NCCCC[C@@H](NC(=O)CCNC(=O)[C@@H]1CSCC(=O)N[C@H](C)C(=O)N(C)[C@@H](Cc2cccnc2)C(=O)N[C@@H](CC(N)=O)C(=O)N[C@@H](CC(C)C)C(=O)N[C@@H](CCCC(=O)O)C(=O)N(C)[C@@H](Cc2ccccc2)C(=O)N[C@@H](Cc2cn(C)c3ccccc23)C(=O)N[C@@H](CCCCNC(=O)N2CCN(CC(=O)O)CC2)C(=O)N[C@@H](Cc2cn(C)c3ccccc23)C(=O)N[C@@H]([C@@H](C)O)C(=O)N[C@@H](CCCC(N)=O)C(=O)N1)C(N)=O [PDC_EphA2-00008091, da-Me3Py-N-L-Hgl-MeF-W1Me-KCOpipzaa-W1Me-T-Hgn-C-bA-dkAc-NH2] ({CH2CO}-[dA][NMe3Pal]NL[Aad][NMeF][Trp(1-Me)]K([CO-Piperazinyl(4-CH2COOH)])[Trp(1-Me)]T[Aad](NH2)C[βAla][dK](Ac)-NH2; thioether N-12) | > 9.00
CC(=O)NCCCC[C@@H](NC(=O)CCNC(=O)[C@@H]1CSCC(=O)N[C@H](C)C(=O)N(C)[C@@H](Cc2cccnc2)C(=O)N[C@@H](CC(N)=O)C(=O)N[C@@H](CC(C)C)C(=O)N[C@@H](CCCCNC(=O)N2CCN(CC(=O)O)CC2)C(=O)N(C)[C@@H](Cc2ccccc2)C(=O)N[C@@H](Cc2cn(C)c3ccccc23)C(=O)N[C@@H](CCCCNC(=O)N2CCN(CC(=O)O)CC2)C(=O)N[C@@H](Cc2cn(C)c3ccccc23)C(=O)N[C@@H]([C@@H](C)O)C(=O)N[C@@H](CCCC(N)=O)C(=O)N1)C(N)=O [PDC_EphA2-00008092, da-Me3Py-N-L-KCOpipzaa-MeF-W1Me-KCOpipzaa-W1Me-T-Hgn-C-bA-dkAc-NH2] ({CH2CO}-[dA][NMe3Pal]NLK([CO-Piperazinyl(4-CH2COOH)])[NMeF][Trp(1-Me)]K([CO-Piperazinyl(4-CH2COOH)])[Trp(1-Me)]T[Aad](NH2)C[βAla][dK](Ac)-NH2; thioether N-12) | > 9.00
CC(=O)NCCCC[C@@H](NC(=O)CCNC(=O)[C@@H]1CSCC(=O)N[C@H](C)C(=O)N(C)[C@@H](Cc2cccnc2)C(=O)N[C@@H](CC(N)=O)C(=O)N[C@@H](CC(C)C)C(=O)N[C@@H](CCCC(N)=O)C(=O)N(C)[C@@H](Cc2ccccc2)C(=O)N[C@@H](Cc2cn(C)c3ccccc23)C(=O)N[C@@H](CCCCNC(=O)N2CCN(CC(=O)O)CC2)C(=O)N[C@@H](Cc2cn(C)c3ccccc23)C(=O)N[C@@H]([C@@H](C)O)C(=O)N[C@@H](CCCC(N)=O)C(=O)N1)C(N)=O [PDC_EphA2-00008093, da-Me3Py-N-L-Hgn-MeF-W1Me-KCOpipzaa-W1Me-T-Hgn-C-bA-dkAc-NH2] ({CH2CO}-[dA][NMe3Pal]NL[Aad](NH2)[NMeF][Trp(1-Me)]K([CO-Piperazinyl(4-CH2COOH)])[Trp(1-Me)]T[Aad](NH2)C[βAla][dK](Ac)-NH2; thioether N-12) | > 9.00
CC(=O)NCCCC[C@@H](NC(=O)CCNC(=O)[C@@H]1CSCC(=O)N[C@H](C)C(=O)N(C)[C@@H](Cc2cccnc2)C(=O)N[C@@H](CC(N)=O)C(=O)N[C@@H](CC(C)C)C(=O)N[C@@H](CCCC(=O)O)C(=O)N(C)[C@@H](CCC(=O)O)C(=O)N[C@@H](Cc2cn(C)c3ccccc23)C(=O)N[C@@H](CCCCNC(=O)N2CCN(CC(=O)O)CC2)C(=O)N[C@@H](Cc2cn(C)c3ccccc23)C(=O)N[C@@H]([C@@H](C)O)C(=O)N[C@@H](CCCC(N)=O)C(=O)N1)C(N)=O [PDC_EphA2-00008094, da-Me3Py-N-L-Hgl-MeE-W1Me-KCOpipzaa-W1Me-T-Hgn-C-bA-dkAc-NH2] ({CH2CO}-[dA][NMe3Pal]NL[Aad][NMeE][Trp(1-Me)]K([CO-Piperazinyl(4-CH2COOH)])[Trp(1-Me)]T[Aad](NH2)C[βAla][dK](Ac)-NH2; thioether N-12) | > 9.00
CC(=O)NCCCC[C@@H](NC(=O)CCNC(=O)[C@@H]1CSCC(=O)N[C@H](C)C(=O)N(C)[C@@H](Cc2cccnc2)C(=O)N[C@@H](CC(N)=O)C(=O)N[C@@H](CC(C)C)C(=O)N[C@@H](CCCCNC(=O)N2CCN(CC(=O)O)CC2)C(=O)N(C)[C@@H](CCC(=O)O)C(=O)N[C@@H](Cc2cn(C)c3ccccc23)C(=O)N[C@@H](CCCCNC(=O)N2CCN(CC(=O)O)CC2)C(=O)N[C@@H](Cc2cn(C)c3ccccc23)C(=O)N[C@@H]([C@@H](C)O)C(=O)N[C@@H](CCCC(N)=O)C(=O)N1)C(N)=O [PDC_EphA2-00008095, da-Me3Py-N-L-KCOpipzaa-MeE-W1Me-KCOpipzaa-W1Me-T-Hgn-C-bA-dkAc-NH2] ({CH2CO}-[dA][NMe3Pal]NLK([CO-Piperazinyl(4-CH2COOH)])[NMeE][Trp(1-Me)]K([CO-Piperazinyl(4-CH2COOH)])[Trp(1-Me)]T[Aad](NH2)C[βAla][dK](Ac)-NH2; thioether N-12) | > 9.00
CC(=O)NCCCC[C@@H](NC(=O)CCNC(=O)[C@@H]1CSCC(=O)N[C@@H](C)C(=O)N(C)[C@@H](Cc2cccnc2)C(=O)N[C@@H](CC(N)=O)C(=O)N[C@@H](CC(C)C)C(=O)N[C@@H](CCCC(=O)O)C(=O)N(C)[C@@H](Cc2ccccc2)C(=O)N[C@@H](Cc2cn(C)c3ccccc23)C(=O)N[C@@H](CCCCNC(=O)N2CCN(CC(=O)O)CC2)C(=O)N[C@@H](Cc2cn(C)c3ccccc23)C(=O)N[C@@H]([C@@H](C)O)C(=O)N[C@@H](CCC(=O)O)C(=O)N1)C(N)=O [PDC_EphA2-00008097, A-Me3Py-N-L-Hgl-MeF-W1Me-KCOpipzaa-W1Me-T-E-C-bA-dkAc-NH2] ({CH2CO}-A[NMe3Pal]NL[Aad][NMeF][Trp(1-Me)]K([CO-Piperazinyl(4-CH2COOH)])[Trp(1-Me)]TEC[βAla][dK](Ac)-NH2; thioether N-12) | 8.00 to 9.00
CC(C)C[C@@H]1NC(=O)[C@H](CC(N)=O)NC(=O)[C@H](Cc2cccnc2)N(C)C(=O)[C@@H](C)NC(=O)CSC[C@@H](C(N)=O)NC(=O)[C@H](CCCC(N)=O)NC(=O)[C@H]([C@@H](C)O)NC(=O)[C@H](Cc2cn(C)c3ccccc23)NC(=O)[C@H](CCCCNC(=O)N2CCN(CC(=O)O)CC2)NC(=O)[C@H](Cc2cn(C)c3ccccc23)NC(=O)[C@H](Cc2ccccc2)N(C)C(=O)[C@H](CCCC(N)=O)NC1=O [PDC_EphA2-00009998, da-Me3Py-N-L-Hgn-MeF-W1Me-KCOpipzaa-W1Me-T-Hgn-C-NH2] ({CH2CO}-[dA][NMe3Pal]NL[Aad](NH2)[NMeF][Trp(1-Me)]K([CO-Piperazinyl(4-CH2COOH)])[Trp(1-Me)]T[Aad](NH2)C-NH2; thioether N-12) | > 9.00
C[C@H]1NC(=O)CSC[C@@H](C(N)=O)NC(=O)[C@H](CCCC(N)=O)NC(=O)[C@H]([C@@H](C)O)NC(=O)[C@H](Cc2cn(C)c3ccccc23)NC(=O)[C@H](CCCCNC(=O)N2CCN(CC(=O)O)CC2)NC(=O)[C@H](Cc2cn(C)c3ccccc23)NC(=O)[C@H](Cc2ccccc2)N(C)C(=O)[C@H](CCCC(N)=O)NC(=O)[C@H](C2CCC2)NC(=O)[C@H](CC(N)=O)NC(=O)[C@H](Cc2cccnc2)N(C)C1=O [PDC_EphA2-00009999, da-Me3Py-N-Cbg-Hgn-MeF-W1Me-KCOpipzaa-W1Me-T-Hgn-C-NH2] ({CH2CO}-[dA][NMe3Pal]N[Gly(cBu)][Aad](NH2)[NMeF][Trp(1-Me)]K([CO-Piperazinyl(4-CH2COOH)])[Trp(1-Me)]T[Aad](NH2)C-NH2; thioether N-12) | > 9.00
C[C@H]1NC(=O)CSC[C@@H](C(N)=O)NC(=O)[C@H](CCCC(N)=O)NC(=O)[C@H]([C@@H](C)O)NC(=O)[C@H](Cc2cn(C)c3ccccc23)NC(=O)[C@H](CCCCNC(=O)N2CCN(CC(=O)O)CC2)NC(=O)[C@H](Cc2cn(C)c3ccccc23)NC(=O)[C@H](CC(N)=O)NC(=O)[C@H](CCCC(N)=O)NC(=O)[C@H](C2CCC2)NC(=O)[C@H](CC(N)=O)NC(=O)[C@H](Cc2cccnc2)N(C)C1=O [PDC_EphA2-00010000, da-Me3Py-N-Cbg-Hgn-N-W1Me-KCOpipzaa-W1Me-T-Hgn-C-NH2] ({CH2CO}-[dA][NMe3Pal]N[Gly(cBu)][Aad](NH2)N[Trp(1-Me)]K([CO-Piperazinyl(4-CH2COOH)])[Trp(1-Me)]T[Aad](NH2)C-NH2; thioether N-12) | > 9.00
C[C@H]1NC(=O)CSC[C@@H](C(N)=O)NC(=O)[C@H](CCCC(N)=O)NC(=O)[C@H]([C@@H](C)O)NC(=O)[C@H](Cc2cn(C)c3ccccc23)NC(=O)[C@H](CCCCNC(=O)N2CCN(CC(=O)O)CC2)NC(=O)[C@H](Cc2cn(C)c3ccccc23)NC(=O)[C@H](CC(N)=O)N(C)C(=O)[C@H](CCCC(N)=O)NC(=O)[C@H](C2CCC2)NC(=O)[C@H](CC(N)=O)NC(=O)[C@H](Cc2cccnc2)N(C)C1=O [PDC_EphA2-00010001, da-Me3Py-N-Cbg-Hgn-MeN-W1Me-KCOpipzaa-W1Me-T-Hgn-C-NH2] ({CH2CO}-[dA][NMe3Pal]N[Gly(cBu)][Aad](NH2)[NMeN][Trp(1-Me)]K([CO-Piperazinyl(4-CH2COOH)])[Trp(1-Me)]T[Aad](NH2)C-NH2; thioether N-12) | > 9.00
C[C@H]1NC(=O)CSC[C@@H](C(N)=O)NC(=O)[C@H](CCCC(N)=O)NC(=O)[C@H]([C@@H](C)O)NC(=O)[C@H](Cc2cn(C)c3ccccc23)NC(=O)[C@H](CCCCNC(=O)N2CCN(CC(=O)O)CC2)NC(=O)[C@H](Cc2cn(C)c3ncccc23)NC(=O)[C@H](Cc2ccccc2)N(C)C(=O)[C@H](CCCC(N)=O)NC(=O)[C@H](C2CCC2)NC(=O)[C@H](CC(N)=O)NC(=O)[C@H](Cc2cccnc2)N(C)C1=O [PDC_EphA2-00010002, da-Me3Py-N-Cbg-Hgn-MeF-W1Me7N-KCOpipzaa-W1Me-T-Hgn-C-NH2] ({CH2CO}-[dA][NMe3Pal]N[Gly(cBu)][Aad](NH2)[NMeF][X6]K([CO-Piperazinyl(4-CH2COOH)])[Trp(1-Me)]T[Aad](NH2)C-NH2; thioether N-12) | > 9.00
